Source: patent publication US20250290928A1, “METHOD, KIT AND DEVICE FOR DETECTING EXTRACELLULAR VESICLES” (priority 2022, published 2025)
Primed or numbered codes have the meaning given here. *: point of attachment. Dabcyl′ = 4-((4-(dimethylamino)phenyl)azo)benzoic acid, CN(C)c1ccc(/N=N/c2ccc(C(=O)*)cc2)cc1; 5FAM = O=C1OC2(c3ccc(O)cc3Oc3cc(O)ccc32)c2ccc(C(=O)*)cc21

How the values were obtained:
Format in all cases: biochemical, Human
[1] = test system: MMP in the MDA-MB-231-derived extracellular vesicles; experiment: Digital detection of MDA-MB-231-derived extracellular vesicles through MMP activity in wells (SB substrates); conditions: for Expected value λ / Number of positives / Positive ratio: 6 h; for Extracellular vesicle concentration / Expected value λ (×1): Example 35, 6 h; for Extracellular vesicle concentration: at a concentration of x1, 50 fL; for Expected value λ (×1): from power approximation equation
Experimental: The concentration of the solution is 10 μg/mL. […] The solution was further diluted 2-fold to prepare a standard sample at a concentration of x1/4, further diluted 3-fold to prepare a standard sample at a concentration of x1/12, and further diluted 3-fold to prepare a standard sample at a concentration of x1/36. Thus, the standard samples with four concentrations were prepared.
In addition, 1 mM Alexa Fluor 647 was used as a standard fluorescent substance, and each of the MMP14 detection solutions contained the standard fluorescent substance at a final concentration of 2 μM.
(§1) 50 μL of each of the MMP detection solutions was added to 50 μL of each of the samples, a reaction was performed at 30° C., and MMP activity was evaluated.

[2] = test system: MMP in the MDA-MB-231-derived extracellular vesicles; experiment: Evaluation of MMP activity of MDA-MB-231-derived extracellular vesicles with 96-well plate (SensoLyte 520 MMP Substrate Sampler Kit); conditions: for Fluorescence change after 1 hour of reaction at 30° C.: Example 34, EV 4 μg/mL, reporter 5 μM, buffer (4); for Fluorescence change after 2 hours of reaction at 30° C.: MP, EV 3.3 μg/mL
Experimental: (§2) 50 μL of the MMP detection solution was added to 50 μL of each of the samples, a reaction was performed at 30° C., and MMP activity was evaluated.
as §1

[3] = test system: MMP in the A549-derived extracellular vesicles; experiment: Digital detection of A549-derived extracellular vesicles through MMP activity in wells (SB substrates); conditions: for Extracellular vesicle concentration: at a concentration of x1, 50 fL; for Expected value λ / Number of positives / Positive ratio: Example 36, EV 5 μg/mL, reporter 5 μM, 30° C.
Experimental: The concentration of the solution is 10 μg/mL.
50 μL of each of the MMP detection solutions was added to 50 μL of the sample to provide a reaction solution for wells.

[4] = test system: MMP in the A549-derived extracellular vesicles; experiment: Evaluation of MMP activity of A549-derived extracellular vesicles with 96-well plate (SensoLyte 520 MMP Substrate Sampler Kit); conditions: Example 34, EV 4 μg/mL, reporter 5 μM, buffer (4)
Experimental: (§3) The MMP14 activity was evaluated with a 96-well plate (manufactured by Thermo Fisher Scientific Inc., model number: 137101). A fluorescence intensity was measured with a fluorescence plate reader (Synergy MX, manufactured by BioTek Instruments, Inc.) at […] every 5 min for 1 hour. For measurement wavelengths, an excitation wavelength of 485±20 nm and a fluorescence wavelength of 528±20 nm were used.
as §2

[5] = test system: ADAM in the MDA-MB-231-derived extracellular vesicles; experiment: Detection of ADAM activity of MDA-MB-231-derived extracellular vesicles with 96-well plate; conditions: Example 39, EV 3.3 μg/mL, reporter 5 μM, buffer (4)
Experimental: as §3
In addition, for detection of ADAM activity, 1 mM EPDAB010 or PEPDAB014 was diluted with the buffer (4) to prepare a 10 μM ADAM detection solution. In addition, for detection of Cathepsin D activity, 1 mM CathD was diluted with the buffer (4) to prepare a 10 μM Cathepsin D detection solution.
50 μL of the ADAM detection solution or the Cathepsin D detection solution was added to 50 μL of each of the samples, a reaction was performed at 30° C., and activity was evaluated.

[6] = test system: ADAM in the MDA-MB-231-derived extracellular vesicles; experiment: Digital detection of MDA-MB-231-derived extracellular vesicles through ADAM activity in wells; conditions: for Extracellular vesicle concentration: at a concentration of x1, 50 fL; for Expected value λ / Number of positives / Positive ratio: Example 40, EV 2 μg/mL, reporter 5 μM, 30° C.
Experimental: The concentration of the solution is 4 μg/mL.
50 μL of the ADAM or Cathepsin D detection solution was added to 50 μL of the sample to provide a reaction solution for wells.

[7] = Example 35, 30° C., EV 0 (free of extracellular vesicles, pseudopositive)
[8] = Example 35, 30° C., EV 1/4 a.u.
[9] = Example 35, 30° C., EV 1/12 a.u.
[10] = Example 35, 30° C., EV 1/36 a.u.
[11] = Example 35, reporter 5 μM, 30° C., EV 1/2 a.u. (5 μg/mL in reaction solution)
[12] = 1.25 μM with 1.25 μM Custom #2T

Substance	Expected value λ [1, 7]	Number of positives [1, 7]	Positive ratio [1, 7]	Expected value λ [1, 8]	Number of positives [1, 8]	Positive ratio [1, 8]	Expected value λ [1, 9]	Number of positives [1, 9]	Positive ratio [1, 9]	Expected value λ [1, 10]	Number of positives [1, 10]	Positive ratio [1, 10]	Extracellular vesicle concentration [1]	Expected value λ (×1) [1]	Expected value λ [1, 11]	Number of positives [1, 11]	Positive ratio [1, 11]	Fluorescence change after 1 hour of reaction at 30° C. [2]	Fluorescence change after 2 hours of reaction at 30° C. [2, 12]	Fluorescence change after 2 hours of reaction at 30° C. ([2]; 5 μM with 5 μM Custom #2T)	also measured
QXL520-Arg-Pro-Leu-Ala-Leu-Trp-Arg-Lys(5-FAM)-NH2 (QXL520-RPLALWRK(5FAM)-NH2) [SB9]	3.56E−05	1	3.56E−05	0.2881	7,010	0.2503	0.01591	442	0.01579	0.01251	349	0.01243	4.7e+10 mL⁻¹	2.3593	0.9949	17,697	0.6302	62,330 ΔRFU	39,228 ΔRFU	40,247 ΔRFU	Expected value λ (×1) ([3]; Example 36, 4 hr): 0.1169; Extracellular vesicle concentration ([3]; Example 36, 4 hr): 2.338e+09 mL⁻¹; Expected value λ (×1) ([3]; Example 36, 24 hr): 0.01093; Extracellular vesicle concentration ([3]; Example 36, 24 hr): 2.185e+08 mL⁻¹; Expected value λ ([3]; 4 hr): 0.05844; Number of positives ([3]; 4 hr): 1,594; Positive ratio ([3]; 4 hr): 0.05677; Expected value λ ([3]; 24 hr): 0.00546; Number of positives ([3]; 24 hr): 153; Positive ratio ([3]; 24 hr): 0.00545; Fluorescence change after 1 hour of reaction at 30° C. [4]: 1,775 ΔRFU
Dabcyl-EHADLLAVVAK (5FAM)-NH2 ({Dabcyl′}-EHADLLAVVAK(5FAM)-NH2; SMILES CC(C)C[C@H](NC(=O)[C@H](CC(C)C)NC(=O)[C@H](CC(=O)O)NC(=O)[C@H](C)NC(=O)[C@H](Cc1c[nH]cn1)NC(=O)[C@H](CCC(=O)O)NC(=O)c1ccc(/N=N/c2ccc(N(C)C)cc2)cc1)C(=O)N[C@@H](C)C(=O)N[C@H](C(=O)N[C@H](C(=O)N[C@@H](C)C(=O)N[C@@H](CCCCNC(=O)c1ccc2c(c1)C(=O)OC21c2ccc(O)cc2Oc2cc(O)ccc21)C(N)=O)C(C)C)C(C)C) [PEPDAB014]																					Fluorescence change after 2 hours of reaction at 30° C. [5]: 6,939 ΔRFU; Expected value λ (×1) ([6]; Example 40, 4 hr): 0.2813; Extracellular vesicle concentration ([6]; Example 40, 4 hr): 5.625e+09 mL⁻¹; Expected value λ (×1) ([6]; Example 40, 24 hr): 0.4087; Extracellular vesicle concentration ([6]; Example 40, 24 hr): 8.174e+09 mL⁻¹; Expected value λ ([6]; 4 hr): 0.05625; Number of positives ([6]; 4 hr): 1,536; Positive ratio ([6]; 4 hr): 0.0547; Expected value λ ([6]; 24 hr): 0.08174; Number of positives ([6]; 24 hr): 2,204; Positive ratio ([6]; 24 hr): 0.07849
QXL520-Pro-Leu-Ala-Leu-Trp-Ala-Arg-Lys(5-FAM)-NH2 (QXL520-PLALWARK(5FAM)-NH2) [SB2]	3.56E−05	1	3.56E−05	0.3545	8,382	0.2985	0.1011	2,699	0.09612	0.02931	811	0.02888	5.3e+10 mL⁻¹	2.6406	1.326	20,623	0.7344	32,088 ΔRFU	21,733 ΔRFU	31,832 ΔRFU	Expected value λ (×1) ([3]; Example 36, 4 hr): 0.1343; Extracellular vesicle concentration ([3]; Example 36, 4 hr): 2.685e+09 mL⁻¹; Expected value λ (×1) ([3]; Example 36, 24 hr): 0.00799; Extracellular vesicle concentration ([3]; Example 36, 24 hr): 1.599e+08 mL⁻¹; Expected value λ ([3]; 4 hr): 0.06712; Number of positives ([3]; 4 hr): 1,823; Positive ratio ([3]; 4 hr): 0.06492; Expected value λ ([3]; 24 hr): 0.004; Number of positives ([3]; 24 hr): 112; Positive ratio ([3]; 24 hr): 0.00399; Fluorescence change after 1 hour of reaction at 30° C. [4]: 1,154 ΔRFU
QXL520-Pro-Tyr-Ala-Tyr-Trp-Met-Arg-Lys(5-FAM)-NH2 (QXL520-PYAYWMRK(5FAM)-NH2) [SB7]	0.000107	3	0.000107	0.3689	8,663	0.3085	0.03574	986	0.03511	0.01933	536	0.01914	6.8e+10 mL⁻¹	3.4196	1.56	22,181	0.7899	39,031 ΔRFU	28,167 ΔRFU	32,014 ΔRFU	Expected value λ (×1) ([3]; Example 36, 4 hr): 0.02833; Extracellular vesicle concentration ([3]; Example 36, 4 hr): 5.667e+08 mL⁻¹; Expected value λ (×1) ([3]; Example 36, 24 hr): 0.00264; Extracellular vesicle concentration ([3]; Example 36, 24 hr): 5.274e+07 mL⁻¹; Expected value λ ([3]; 4 hr): 0.01417; Number of positives ([3]; 4 hr): 395; Positive ratio ([3]; 4 hr): 0.01407; Expected value λ ([3]; 24 hr): 0.00132; Number of positives ([3]; 24 hr): 37; Positive ratio ([3]; 24 hr): 0.00132; Fluorescence change after 1 hour of reaction at 30° C. [4]: 1,228 ΔRFU
QXL520-Pro-Leu-Gly-Met-Trp-Ser-Arg-Lys(5-FAM)-NH2 (QXL520-PLGMWSRK(5FAM)-NH2) [SB6]	3.57E−05	1	3.57E−05	0.5449	11,797	0.4201	0.09454	2,533	0.09021	0.04778	1,310	0.04665	4.3e+10 mL⁻¹	2.1589	1.006	17,761	0.6343	52,130 ΔRFU	37,893 ΔRFU	57,158 ΔRFU	Expected value λ (×1) ([3]; Example 36, 4 hr): 0.141; Extracellular vesicle concentration ([3]; Example 36, 4 hr): 2.819e+09 mL⁻¹; Expected value λ (×1) ([3]; Example 36, 24 hr): 0.09817; Extracellular vesicle concentration ([3]; Example 36, 24 hr): 1.963e+09 mL⁻¹; Expected value λ ([3]; 4 hr): 0.07048; Number of positives ([3]; 4 hr): 1,911; Positive ratio ([3]; 4 hr): 0.06806; Expected value λ ([3]; 24 hr): 0.04908; Number of positives ([3]; 24 hr): 1,345; Positive ratio ([3]; 24 hr): 0.0479; Fluorescence change after 1 hour of reaction at 30° C. [4]: 2,043 ΔRFU
